SMILES strings stand for the structures.

From US20070027198A1, “Crystal of heterocyclic compound” (priority 2003, published 2007) come the findings set out here.

Common to all, as to assay type: physicochemical
A short description of series [1]: Investigation of hygroscopicity (weight change and powder X-ray diffraction after storage in a desiccator). The conditions noted are these: for transformation of crystalline form (powder X-ray diffraction before and after storage): 25° C. in 93% RH for 14 days; for weight change caused by absorption of moisture: 93% RH at 25° C., stored up to 14 days. The procedure:
The powder X-ray diffraction spectra were measured by means of a Rigaku Corporation's RAD-2B (target: Cu; Voltage: 40 kV; current: 20 mA; scanning speed: 4°/minute; measurement error: 2θ±0.2°).
Form I crystals and Form II crystals of Compound A, approximately 1 g each, were precisely weighed in weighing bottles, which were then kept in a desiccator of 93% RH at 25° C. […] In addition, the powder X-ray diffraction spectra were measured before and after preservation. The results are shown in FIG. 3 (weight change of Form I crystal), FIG. 4 (weight change of Form II crystal), FIG. 5 (powder X-ray diffraction spectrum of Form I crystal), and FIG. 6 (powder X-ray diffraction spectrum of Form II crystal).

Series [2] is described as follows: Investigation of thermodynamic stability by differential scanning calorimetry. The procedure:
The differential scanning calorimetry in Experimental Example 5 was made by means of a Perkin Elmer DSC7 (for temperature-raising rate of 1° C./minute, the range of measurement: 130° C.→160° C.; and for temperature-raising rate of 2, 5, 7 or 10° C./minute, the range of measurement: 120° C.→170° C.).
The thermodynamic stability of the crystal of Compound A was investigated by differential scanning calorimetry.
The differential scanning calorimetry was carried out at a temperature-raising rate of 1, 2 or 5° C./minute for Form I crystal of Compound A and at 1, 5, 7 or 10° C./minute for Form II crystal. The results are shown in FIG. 7 (a chart of differential scanning calorimetry in Form I crystal), FIG. 8 and FIG. 9 (a chart of differential scanning calorimetry in Form II crystal).
On the technique in general: DSC measures the heat that a sample takes up or gives off during a temperature scan.

A short description of series [3]: Investigation of transformation mediated by solvents (suspension in toluene, crystalline form confirmed by DSC). The conditions noted are these: 50 mg suspended in 1 ml of toluene, stirred overnight. As for the experimental part:
The differential scanning calorimetry in Example 1 and Example 2 was made by means of a Perkin Elmer DSC7 (temperature-raising rate: 10° C./minute; the range of measurement: 50° C. (constant temperature 1 minute)→180° C.). The differential scanning calorimetry in Experimental Example 4 was made by means of Shimadzu Corporation's DSC-50 (temperature-raising rate: 2° C./minute; the range of measurement: room temperature→220° C.).
The influence of toluene (solvent) on the crystalline form of Compound A was investigated.
Form I crystals and Form II crystals of Compound A, 50 mg each, were weighed and respectively suspended in 1 ml of toluene, and stirred overnight. Thereafter, the crystals were separated by filtration and dried, of which the crystalline form was confirmed by a differential scanning calorimetry.

For `Cc1ccc(-c2nc(CCCC[C@H]3CO[C@@](C)(C(=O)O)OC3)c(C)o2)cc1` [Form II crystal, 2-methyl-c-5-[4-[5-methyl-2-(4-methylphenyl)-1,3-oxazol-4-yl]butyl]-1,3-dioxane-r-2-carboxylic acid], in series [1], the “transformation of crystalline form (powder X-ray diffraction before and after storage)” value was “no transformation of crystalline form”; the “weight change caused by absorption of moisture” value is reported as “no change of weight”. In series [2] (lower temperature-raising rate: 7° C./minute, 5° C./minute, 1° C./minute), the “peak of Form I crystal in differential scanning calorimetry” value is given as “a peak resulting from Form I crystal was recognized”. Also, in series [2] (temperature-raising rate of 10° C./minute), the “peak of Form I crystal in differential scanning calorimetry” value was “no peak of Form I crystal was confirmed”. For the same compound, the “transformation of crystalline form in solvent” value in series [3] (listed as form II crystal) is “no transformation of crystalline form occurs”.
Regarding `Cc1ccc(-c2nc(CCCC[C@H]3CO[C@@](C)(C(=O)O)OC3)c(C)o2)cc1` [Form I crystal, 2-methyl-c-5-[4-[5-methyl-2-(4-methylphenyl)-1,3-oxazol-4-yl]butyl]-1,3-dioxane-r-2-carboxylic acid], in series [1] (listed as Form I crystals), the “transformation of crystalline form (powder X-ray diffraction before and after storage)” value is given as “transformation of crystalline form (from Form I to Form II) was recognized”; the “weight change caused by absorption of moisture” value was 2.3%. In addition, in series [2] (temperature-raising rate of 1, 2 or 5° C./minute), the “endothermic peaks in differential scanning calorimetry” value is on record as “only one endothermic peak”. For the same compound, the “transformation of crystalline form in solvent” value in series [3] was “transformed into Form II crystal”.
